How the values were obtained:
[1] = Stability of the aqueous biocide solution (total active chlorine as Cl2 over time); type: physicochemical
Excerpt: The concentration of the active chlorine is based on the measurement of total chlorine (as Cl2). The term “as Cl2” refers to the measurement of the active chlorine as total chlorine.

[2] = test system: Pseudomonas aeruginosa (ATCC 15442); assay: Biocidal activity against simulated biofilm (bacteria entrapped in alginate gel beads), surviving CFU; type: cell-based; conditions: for time of total kill: alginate beads, pH 7
Excerpt: A biofilm simulation system developed by the Biofilm Bozeman Institute Montana (Grobe K. J., Zahler J., and Stewart P. S., 2002 in “Role of dose concentration in biocide efficacy against Pseudomonas aeruginosa Biofilms”, J. Industrial Microbiology & Biotechnology, vol. 29, pp 10-15), was used in this experiment to evaluate the efficacy of biocidal solutions against biofilm.
The biofilm simulation was created by entrapping bacteria in alginate gel beads. A plate of R2A agar was streaked with Pseudomonas aeruginosa (ATCC 15442) and incubated at 35° C. overnight. Buffer phosphate at pH 7.2 was used to scrap off the bacteria from the agar plate and to create a suspension. The bacterial suspension was mixed with an equal volume of an aqueous 4% sodium alginate solution, to make a final 2% alginate solution. The alginate and bacterial slurry were placed in a 50 ml syringe attached to a 22 gauge needle, connected to a compressed air tank, allowing the syringe to be pressurized. At 20 psig pressure a stream of small drops was forced out and dropped into a stirred solution of 50 mM CaCl2. The Ca^+2 cross linked the alginate, and semi solid beads with entrapped bacterial cells were formed. The beads were allowed to stir in the CaCl2 solution for about 20 minutes, and then rinsed in a dilute 5 mM CaCl2 solution. Several flasks containing 100 beads each were incubated overnight at 35° C. on a rotating shaker in a buffer solution (at pH 7) with 5 mM addition of CaCl2 to maintain the beads structure. The resulting beads diameter is about 2 mm
At the beginning of the experiment, the supernatant of the beads buffer suspension containing 5 mM CaCl2 was decanted and replaced by the 100 ml biocide solution with the required concentration (between 0.5, 1, 2.5 and 5 ppm as total Cl2).
After different interval contact times, 10 beads were removed and placed in a 5 g/l sodium thiosulfate solution containing 50 mM sodium citrate. The sodium citrate was used to dissolve the alginate gel and release the bacteria into the solution. The neutralizer-citrate solution was placed in the refrigerator for 2 hours, than diluted and placed on R2A agar plates using pour plate technique. The plates were incubated at 35° C. for 24-48 hours and counted. The efficacy and toxicity of the neutralizer were checked as well as a control experiment without biocide addition. Four concentrations (0.5, 1, 2.5 and 5 ppm) were tested at four different contact times (5, 15, 30, and 60 min) FIGS. 1-10 describe the surviving colony forming units (CFU) of the bacteria after the biocide treatment at different contact times.

[3] = 1 ppm dose, contact time not stated

Compound	active chlorine reading (as Cl2) ([1]; after 20.3 hrs)	active chlorine remaining, percent of initial ([1]; after 20.3 hrs)	active chlorine reading (as Cl2) ([1]; after 44.4 hrs)	active chlorine remaining, percent of initial ([1]; after 44.4 hrs)	time the solution / active Cl2 level stayed stable (unchanged) ([1]; aqueous solution about 500 ppm as Cl2)	total active Cl2 found after mixing ([1]; freshly mixed solution, expected 500 ppm as Cl2)	log reduction of microbe concentration ([2]; 0.5 ppm dose, contact time not stated)	effect on the microbe concentration ([2]; 0.5 ppm dose)	effect on the microbe concentration ([2]; 1 ppm dose)	log reduction of microbe concentration [2, 3]	time of total kill ([2]; 2.5 ppm dose (as total Cl2))	time of total kill ([2]; 5 ppm dose (as total Cl2))	log reduction of microbe concentration ([2]; 2.5 ppm dose, after 60 min)	log reduction of microbe concentration ([2]; 2.5 ppm dose, contact time not stated)
NCl [chloramine]	493 ppm	91%	223 ppm	41.4%	2 h	539 ppm	4 log	–	–	–	–	–	–	–
O=c1n(Cl)c(=O)n(Cl)c(=O)n1Cl [TCCA, trichloroisocyanuric acid]	–	–	–	–	–	–	–	almost no activity	almost no activity	1 log	60 min	30 min	–	–
[Na+].[O-]Cl [NaOCl]	–	–	–	–	–	–	–	no effect was observed at all	–	1 log	–	60 min	1 log	1 log
O=c1nc([O-])n(Cl)c(=O)n1Cl.[Na+] [NaDCC, sodium dichloroisocyanurate]	–	–	–	–	–	–	–	almost no activity	almost no activity	1 log	60 min	30 min	more than 4 log	–
